The term IC50 denotes the midpoint of a concentration-inhibition curve.

The target of this assay is T1, PTP1B (Homo sapiens, UniProt P18031).
T1 construct: gene PTPN1; WT PTP1B containing a His-tag
T1 sequence (P18031 1-435): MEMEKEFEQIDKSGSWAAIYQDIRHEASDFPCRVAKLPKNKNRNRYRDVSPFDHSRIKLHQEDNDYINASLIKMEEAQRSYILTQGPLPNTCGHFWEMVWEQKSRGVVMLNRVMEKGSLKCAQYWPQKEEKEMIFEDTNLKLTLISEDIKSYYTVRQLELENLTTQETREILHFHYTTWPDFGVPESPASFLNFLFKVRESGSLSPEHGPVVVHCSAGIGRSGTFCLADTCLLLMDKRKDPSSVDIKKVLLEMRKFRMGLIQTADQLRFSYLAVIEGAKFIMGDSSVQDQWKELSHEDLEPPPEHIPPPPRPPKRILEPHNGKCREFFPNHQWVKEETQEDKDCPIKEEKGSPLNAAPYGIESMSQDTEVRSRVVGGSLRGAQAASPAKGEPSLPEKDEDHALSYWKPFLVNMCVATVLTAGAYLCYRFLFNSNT
The assay is described as follows: DiFMUP fluorescence phosphatase assay with […] purified PTP1B. It counts as biochemical.

The structures appear in SMILES notation.

Compound `CC(=O)[C@H]1CC[C@H]2[C@@H]3CC[C@H]4C[C@](C)(O)CC[C@]4(C)[C@H]3CC[C@]12C` [ganaxolone, 3α-Hydroxy-3β-methyl-5α-pregnan-20-one] came in with an IC50 of 600 nM.

Source of the values: article PMC13311170, “Ganaxolone, an approved therapy for CDKL5-deficiency disorder, is an inhibitor of PTP1B” (The Journal of Biological Chemistry, 2026).
